# Results published in patent publication US20200384072A1, “THERAPY OF IONIZING RADIATION-INDUCED DISORDERS” (SCK-CEN, priority 2019, published 2020).
# Columns and labels:
# TICAE cells = experiment: Scrape loading and dye transfer (SLDT), gap junctional coupling after irradiation, TICAE cells; format: cell-based, human; conditions: Carbenoxolone 50 μM, single 0.1 or 5 Gy, 6 h and 72 h p.i.
# Procedure: (§1) The scrape loading and dye transfer assay (SLDT) was used to assess gap junctional function after IR exposure. TICAE and TIME cells were seeded in a 24-well plate at a density of 1×10^5 cells/well in four to six biological replicates. Three days later, cells reached 100% confluence and the medium was refreshed before irradiation with 1 ml/well for single irradiation experiment and 1.5 ml for fractionated irradiation experiment. At different time points after irradiation (6 and 72 h post single irradiation, or 72 h post fractionated irradiation) the cells were washed 3 times with a scrape loading and dye transfer (SLDT) buffer (137 mM NaCl, 5.36 mM KCl, 0.81 mM MgCl2, 5.55 mM […], 25 mM HEPES, pH 7.4). Then, the cells were incubated with a SLDT solution composed of SLDT buffer and 400 μM 6-carboxyfluorescein (6-CF, 0.376 kDa) (Sigma-Aldrich Co. LCC, Diegem, Belgium) for one minute. A vertical scratch was made in the middle of each well, using a 20G needle (Becton Dickinson, Erembodegem, Belgium). After another one minute incubation, the cells were washed 6 times with HMS supplemented with 25 mM HEPES (Sigma-Aldrich Co. LCC, Diegem, Belgium). […] The relative area of 6-CF transfer was calculated using FIJI software. By analyzing the area of the dye diffusion from the first line of cells to adjacent cells, the gap junctional coupling was determined.
# [1] = test system: primary brain microvascular endothelial cells (pBMECs); experiment: γ-H2AX counts after local 3×3 mm X-ray irradiation (irradiated and bystander zones), pBMECs; format: cell-based, mouse; conditions: 1 Gy, 3 h post-irradiation
# Procedure: Cortices, from 10-12 week old mice, were isolated by removing cerebellum, striatum, optic nerves, brain white matter, outer vessels and meninges. After homogenization with a Dounce homogenizer in WBB (Washing Buffer B: HMS, 10 mM Hepes, 0.35 g/L NaHCO3, 0.1% BSA), the homogenate was mixed with 30% dextran in WBB and centrifuged at 3000×g for 25 min at 4° C. The pellet containing the vascular component was then resuspended in WBB and filtered through a 60 μm NY60 Nylon Net Filter (Millipore, Darmstadt, Germany). Following centrifugation at 1000×g for 7 min at room temperature, the pellet was digested in collagenase/dispase supplement with DNase I (Roche Diagnostics, Vilvoorde, Belgium) and TLCK (Tosyl, Lysin chloromethyl ketone, sigma-aldrich) for 33 min at 37° C. in a shaking water bath. The digested capillary suspension was then seeded after multiple washing steps on wells coated with matrigel or glass coated with Corning Cell-Tak (VWR, Leuven, Belgium). For the isolation of intact capillaries the protocol was aborted just before the digestion step.
# (§2) A defined area of the cell culture dishes were exposed to X-rays (1Gy or 20 Gy) by using a small animal radiation research platform (SARRP, Xstrahl, 220 kV, 13 mA), making use of a 3×3 mm collimator. Whole dish irradiation was done using a 10×10 cm broad-beam collimator, while localized Irradiation was performed with a 3×3 mm collimator. A Gafchromic RTQA2 film, with a sensitivity of 0.02 Gy, was placed underneath the cell dishes in order to delineate the irradiated zone.
# (§3) Cells were fixed for 25 min with 4% formaldehyde (VWR) and blocked for 30 min with blocking buffer (5% normal goat serum, 1% bovine serum albumin (BSA), 0.2% Triton X-100 in PBS D+). Overnight incubation with primary antibody (1/500 anti-γ-H2AX in dilution buffer, 1/10 blocking buffer in PBS D+) was followed by a 1 h incubation with 1/400 XX-biotin-goat-anti-mouse antibody in dilution buffer, followed by a 1 h incubation with 1/400 streptavidin-alexa488 in PBS D+. Nuclei were stained with 1 μg/mL DAPI in PBS D+ for 10 min and cells were kept in PBS D+ supplemented with NaN3 at 4° C. All steps except the overnight incubation which was carried out at 4° C., were carried out at room temperature and cell cultures were rinsed thoroughly with PBS D+ between all incubation steps. Imaging was performed with an automated BD Pathway 435 imaging system (10× objective, 10×10 montage resulting in an overall image size of 8.5×6.5 mm). We then quantified the number of γ-H2AX-foci positive nuclei in the directly irradiated and bystander areas and expressed the count as a percentage relative to the number of nuclei and subtracted the percentage of background γ-H2AX signal in non-irradiated paired control cultures for each experiment. For counting γ-H2AX foci, images were thresholded to remove background pixel noise below the foci level. Where applicable, results were normalized against vehicle (bar charts with a 100% vehicle bar without statistical variability or a horizontal line).
# RBE4 cells [2] = experiment: Cytosolic Ca2+ imaging after medium transfer from irradiated to recipient RBE4 cells; format: cell-based, rat
# Procedure: Cells were seeded on glass coverslips (18 mm 0) coated with 3.5 μg/cm^2 Corning cell-tak (VWR, Leuven, Belgium) and ester loaded for 45 min with 10 μM Fluo-3-AM in HBSS-HEPES supplemented with 1 mM of probenecid and 0.01% of pluronic F127 at room temperature followed by de-esterification over 15 min. Imaging was performed using an inverted fluorescence microscope equipped with a ×40 oil immersion objective and an EM-CCD camera (QuantEM™ 512SC CCD camera, Photometrics, Tucson, Ariz.). For direct Ca^2+ measurements the loaded cells were irradiated and transferred to the microscopy stage. For medium transfer, the loaded cells were superfused for 1 min with HBSS-Hepes (1 mM), followed by 4 min with HBSS-Hepes conditioned by irradiated cultures. Fluorescence intensity changes in the cells were analyzed with custom-developed FluoFrames software (L. Leybaert, Ghent, Belgium). Ca^2+ changes were quantified as the area under the curve (AUC) of the Ca^2+ traces.
# RBE4 cells [3] = experiment: γ-H2AX counts after local 3×3 mm X-ray irradiation (irradiated and bystander zones), RBE4 cells; format: cell-based, rat; conditions: 1 Gy, 3 h post-irradiation, Cbx 50 μM, Gap26 161 μM, TAT-Gap19 200 μM, Xestospongin C 5 μM
# Procedure: as §2, §3
# RBE4 cells [4] = experiment: Irradiation-induced ATP release, RBE4 cells; format: cell-based, rat; conditions: broad-beam 1 Gy, 5 min post-irradiation, BAPTA-AM 10 μM, NALC 1 mM, c-PTIO 100 μM
# Procedure: ATP was measured using a luciferin-luciferase assay kit (Sigma-Aldrich) in combination with a luminometer plate reader (Victor3 1420 multi label counter; Perkin Elmer, Zaventem, Belgium).
# Extracellular ATP measurements were initially carried out at different time-points post-irradiation, the effect of blockers on ATP release was tested at the 5 min post-irradiation time-point (time of maximum ATP release).
# TIME cells = experiment: Scrape loading and dye transfer (SLDT), gap junctional coupling after irradiation, TIME cells; format: cell-based, human; conditions: Carbenoxolone 50 μM, single 0.1 or 5 Gy, 6 h and 72 h p.i.
# Procedure: as §1
structure (smiles),measurement,setting,value
"CC1(C)[C@@H](OC(=O)CCC(=O)O)CC[C@]2(C)[C@H]3C(=O)C=C4[C@@H]5C[C@@](C)(C(=O)O)CC[C@]5(C)CC[C@@]4(C)[C@]3(C)CC[C@@H]12 [Carbenoxolone, carbenoxolone]",6-CF dye spread (gap junctional dye coupling),TICAE cells,inhibited the dye spread in all cases
same,γ-H2AX counts in the bystander zone (normalized to vehicle),[1],significant decrease
same,γ-H2AX counts in the irradiated area (normalized to vehicle),[1],significant decrease
same,AUC of Ca2+ transients in recipient bystander cells,"RBE4 cells [2]; inhibitor added to the irradiated culture 30 min before irradiation, NALC 1 mM",reduced the area under the curve (AUC)
same,[Ca2+]i responses in recipient cells,"RBE4 cells [2]; inhibitor added to the recipient cells, PPADS 50 μM",inhibited the [Ca^2]i responses
same,γ-H2AX counts in the bystander zone (normalized to vehicle),RBE4 cells [3],significantly inhibited
same,γ-H2AX counts in the irradiated zone (normalized to vehicle),RBE4 cells [3],not statistically significant
same,irradiation-induced ATP release,RBE4 cells [4],inhibited
same,6-CF dye spread (gap junctional dye coupling),TIME cells,inhibited the dye spread in all cases
